Data reported in US6395745B1, “Alkaloid halide salts of swainsonine and methods of use” (priority 1997, dated 2002).

Experiments:
lysosomal mannosidase = molecular target: T1, lysosomal mannosidase (Homo sapiens, UniProt O00754); assay: Inhibition of lysosomal mannosidase in vitro; type: biochemical; conditions: pH 5.0, 60 min at 37° C.
T1 sequence (O00754 50-1011): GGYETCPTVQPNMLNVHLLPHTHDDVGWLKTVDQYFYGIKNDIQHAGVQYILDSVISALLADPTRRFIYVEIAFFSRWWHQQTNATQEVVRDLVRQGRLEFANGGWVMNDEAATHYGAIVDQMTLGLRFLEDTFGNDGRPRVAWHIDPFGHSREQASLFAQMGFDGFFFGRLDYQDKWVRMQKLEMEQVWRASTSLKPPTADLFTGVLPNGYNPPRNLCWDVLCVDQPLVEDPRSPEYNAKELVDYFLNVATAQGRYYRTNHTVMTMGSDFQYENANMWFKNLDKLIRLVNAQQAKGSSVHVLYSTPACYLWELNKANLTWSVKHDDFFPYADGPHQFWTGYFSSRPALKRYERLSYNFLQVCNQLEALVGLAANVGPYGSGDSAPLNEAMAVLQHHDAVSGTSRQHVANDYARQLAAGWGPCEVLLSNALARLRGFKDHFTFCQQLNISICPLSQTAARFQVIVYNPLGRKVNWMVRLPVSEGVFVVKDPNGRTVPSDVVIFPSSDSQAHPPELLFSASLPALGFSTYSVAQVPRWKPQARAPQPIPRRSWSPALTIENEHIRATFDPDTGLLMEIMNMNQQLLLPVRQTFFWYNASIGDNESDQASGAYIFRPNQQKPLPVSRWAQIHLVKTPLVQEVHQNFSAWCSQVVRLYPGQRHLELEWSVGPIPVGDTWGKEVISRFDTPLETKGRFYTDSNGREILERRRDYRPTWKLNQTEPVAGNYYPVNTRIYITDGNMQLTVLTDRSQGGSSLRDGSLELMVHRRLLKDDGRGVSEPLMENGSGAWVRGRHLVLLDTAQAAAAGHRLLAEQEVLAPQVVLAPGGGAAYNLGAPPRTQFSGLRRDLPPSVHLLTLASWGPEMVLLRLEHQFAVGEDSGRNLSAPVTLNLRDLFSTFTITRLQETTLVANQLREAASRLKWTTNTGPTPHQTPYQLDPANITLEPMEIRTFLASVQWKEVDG
Description: The effects of the compounds of the invention on lysosomal mannosidase were measured by adding (10 μl) of the compounds into 96 well Elisa plates followed by the addition of 200 mM sodium acetate pH 5.0 and 25 μl of 10 mM p-nitrophenyl α-D-mannospyranoside. 15 μl of lysosomal mannosidase ( about 8 mM/mL) was added to each well and the plates were incubated for 60 min at 37° C. The reaction was stopped by the addition of 50 μl of 0.5M sodium carbonate and formation of p-nitrophenol was measured with a plate set at 405.

[1] = test system: early erythroid progenitor cells (CFU-E); assay: Murine bone marrow progenitor cell assay in methylcellulose, CFU-E; type: cell-based, C57BL/6 mice
Description: Pathogen-free C57BL/6 female mice, 8-9 weeks old, obtained from Jackson Laboratories were used. The room environment and photoperiod were controlled: 24° C.; humidity, 50±20%; 12 hr light and 12 hr dark. Mice were housed one per cage with ad libitum accesses to standard pelleted commercial laboratory diet and to sterile (autoclaved) tap water.
Swainsonine hydrochloride was manufactured by Seres Laboratories, Calif. FBS and methylcellulose (MethoCult M3330) were purchased from Stem Cell Technologies, Inc. (Vancouver. BC). Iscove's modified Dulbecco's medium was prepared using powdered media from Gibco BRL, deionized water and filter sterilization. For the handling of cells, the media was supplemented with 2% FBS and 50 μM β-mercaptoethanol (referred to as IMDM/FBS).
(§1) The healthy and GD0039 treated mice were euthanized by CO2 asphyxiation. Bone marrow (BM) cell suspensions were prepared under sterile conditions by flushing both femurs and tibiae with IMDM/FBS using a 26 gauge needle. Single cell suspensions were made up to 10.0 ml IMDM/FBS. The concentration of nucleated cells in each suspension was determined by triplicate counts on a hemocytometer. A portion of the cells was further diluted in media to the appropriate concentration before plating for the progenitor assay.
Colony-forming units (CFUs) were estimated by the methylcellulose method. One milliliter suspensions, containing 2×10^5 nucleated BM cells, in 0.1 ml of IMDM and 0.9 ml MethoCult (M3330), were plated in triplicate in 35 mm tissue culture dishes. […] The MethoCult M3330 contains 30% FBS and 10 μg/ml erythropoietin and is designed for the growth of early erythroid progenitor cells (CFU-E), which were scored after 3 days of incubation at 37° C. in a humidified atmosphere containing 5% CO2. […] Colonies containing more than 20 cells were scored using an inverted microscope with brightfield optics and 40× or 100× magnification.

[2] = test system: granulocyte-macrophage progenitor cells (CFU-GM); assay: Murine bone marrow progenitor cell assay in methylcellulose, CFU-GM; type: cell-based, C57BL/6 mouse; conditions: FIG. 11
Description: as §1
Colony-forming units (CFUs) were estimated by the methylcellulose method. One milliliter suspensions, containing 2×10^5 nucleated BM cells, in 0.1 ml of IMDM and 0.9 ml MethoCult (M3330), were plated in triplicate in 35 mm tissue culture dishes. Swainsonine hydrochloride or swainsonine were added to certain plates, in 0.1 ml of IMDM at concentrations of 30 μg/ml and 3 μg/ml, which gave final concentrations of […]. The MethoCult M3330 contains 30% FBS and 10 μg/ml erythropoietin and is designed for the growth of early erythroid progenitor cells (CFU-E), which were scored after 3 days of incubation at 37° C. in a humidified atmosphere containing 5% CO2. […] Colonies containing more than 20 cells were scored using an inverted microscope with brightfield optics and 40× or 100× magnification. […]

STAT1 = STAT1 level and activation in mice (Western blot, immunoblotting); type: in vivo, DBA/2 mice
Description: To measure the level and activation of STATs, DBA/2 mice are treated for 6-9 days with 20 μg/mouse/day of swainsonine hydrochloride followed by a single intraperitoneal (i.p) injection of either sterile saline or 100 μg of poly IC (i.e., dsRNA, a surrogate for virus) in sterile saline. Two hours later an optimal time for STAT activation, spleens of the mice are homogenized and cytosolic and nuclear cell extracts are prepared. STAT protein levels are measured in the cytosolic and nuclear fractions by Western blot analysis. STAT phosphorylation (i.e. activation) is measured following immunoprecipitation using anti-phosphotyrosine antibodies.
DBA/2 mice received daily ip injections of SW hydrochloride (20 μg/day) for 10 days. On day 11 the mice were injected with Poly IC (100 μg/mouse) or an equivalent volume of PBS 2 h before being sacrificed. Spleen and liver tissues were collected and immediately frozen in liquid nitrogen. Nuclear extracts were prepared and analyzed (8 μg) by immunoblotting with the indicated antibodies. […] Cytosol extracts were prepared and analyzed (20 μg) by immunoblotting with the indicated antibodies. Spleen nuclear extracts were prepared and analyzed (8 μg) by immunoblotting with anti-phosphotyrosine antibodies.

Cl.O[C@H]1[C@H]2[C@H](O)CCCN2C[C@@H]1O [swainsonine hydrochloride, (−)-(1S,2S,8R,8aR)-1,2,8-trihydroxyoctahydro-indolizidine hydrochloride salt]
IC50 (lysosomal mannosidase): 0.045 ± 0.01 µM
increase in the number of early CFU-E ([1]; 0.03 μg/ml to 10 μg/ml in vitro): ~3 fold
number of early CFU-E, counted on day 3 ([1]; added to methylcellulose in vitro): significantly increased
mean CFU-E of triplicate counts ± SD from 2 × 10^5 nucleated BM cells ([1]; mouse 1 (control), 0.3 μg/ml in vitro, in vitro control 54 ± 12): 75 ± 16
mean CFU-E of triplicate counts ± SD from 2 × 10^5 nucleated BM cells ([1]; mouse 1 (control), 3 μg/ml in vitro, in vitro control 54 ± 12): 87 ± 16
mean CFU-E of triplicate counts ± SD from 2 × 10^5 nucleated BM cells ([1]; mouse 2 (GD0039 treated in vivo, 20 μg/day for four days), 0.3 μg/ml in vitro): 97 ± 4
mean CFU-E of triplicate counts ± SD from 2 × 10^5 nucleated BM cells ([1]; mouse 2 (GD0039 treated in vivo, 20 μg/day for four days), 3 μg/ml in vitro): 127 ± 18
mean CFU-E of triplicate counts ± SD from 2 × 10^5 nucleated BM cells ([1]; mouse 2 (GD0039 treated in vivo, 20 μg/day for four days), no treatment in vitro): 22 ± 5
effect on granulocyte-macrophage progenitor cells in vitro [2]: stimulate
activation of STAT1 in spleen (STAT1; 20 μg/day ip for 10 days, then Poly IC 100 μg/mouse, FIG. 10A): increases the activation
STAT1 cytosolic protein levels (STAT1; 20 μg/day ip, spleen): enhanced
